Data from US20210106698A1, “LIVER-SPECIFIC MRI CONTRAST AGENT INCLUDING MANGANESE SILICATE NANOPARTICLES” (POSTECH ACADEMY-INDUSTRY FOUNDATION, priority 2017, published 2021).

How the values were obtained:
[1] = T1-weighted MRI of supernatants with released Mn2+ ions (R1, r1); format: physicochemical; details: MnCl2 aqueous solution
Source text: The contrast signal intensity of the photographed image was digitized (R1, unit=[…]), and shown in the graph of FIG. 9b. It is inferred that the released Mn^2+ ions can increase the contrast effect in T1-weighted image, on the basis that FIG. 9b is almost consistent with the graph of the release rate of Mn^2+ ions for each particle shown in FIG. 8e.
Next, the relationship between the concentration of Mn^2+ ions and the contrast intensity R1 of the image is shown in the graph of FIG. 9c. The slope of this graph is expressed as r1, and is a unique value for each material.

[2] = T1 relaxation / T1-weighted image of HMS suspensions (3.0-T MR scanner); format: physicochemical; details: comparison value for free Mn2+
Protocol: The release profile of manganese ions from HMS was quantified at room temperature using 8 mg of HMS suspensions in 16 ml of citrate buffer at pH 5 and pH 6.2 and distilled water. 4 ml of each HMS suspensions was collected from samples at 15 minutes, 1 hour, 7 hours and 20 hours, and the nanoparticles (NPs) of the sample were removed by centrifugation at 15,000 rpm for 10 minutes, and each supernatant was filtered by using syringe filter with […] of pore size. The amount of each released manganese ion and the T1 relaxation time of the proton in each supernatant were quantified using ICP-AES and a 3.0-T clinical MR scanner (Philips, Achieva ver. 1.2, Philips Medical Systems, Best, The Netherlands).
The Mn release property and T1 contrast enhancing property of HMS prepared in Example 1-2 were tested according to Example 1-3.

## [Cl][Mn][Cl] [MnCl2]
[1]
  r1 value for pure Mn^2+ ions: about 7.4
[2]
  r1 value of free manganese ions: 7.8 s⁻¹ mM⁻¹
